Results: patent US20260285850A1, “SUBSTITUTED OXAZOLIDINONES AND IMIDAZOLINONES AS HERBICIDES” (FMC CORPORATION, priority 2023, published 2026)

What was measured:
Format in all cases: in vivo
[1] = system: barnyardgrass (Echinochloa crus-galli); assay: Test A preemergence soil spray, visual injury rating 0-100; conditions: 10 days
Outline: (§1)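 Visual injury, scored 0-100 (100 = complete control) against untreated plants, 10 days after greenhouse treatment. Test chemicals in surfactant-containing non-phytotoxic solvent were applied in loam soil and sand, as a preemergence soil spray on seeds or postemergence to plants at the one- to two-leaf stage.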

[2] = system: blackgrass (Alopecurus myosuroides); assay: as above; conditions: 10 days
Outline: as §1

corn (Zea mays) [3] = assay: as above; conditions: 10 days
Outline: as §1

[4] = system: green foxtail (Setaria viridis); assay: as above; conditions: 10 days
Outline: as §1

kochia (Bassia scoparia) [5] = assay: as above; conditions: 10 days
Outline: as §1

[6] = system: oat, wild (wild oat, Avena fatua); assay: as above; conditions: 10 days
Outline: as §1

[7] = system: palmer (palmer amaranth, palmer pigweed, Amaranthus palmeri); assay: as above; conditions: 10 days
Outline: as §1

[8] = system: ragweed (common ragweed, Ambrosia artemisiifolia); assay: as above; conditions: 10 days
Outline: as §1

[9] = system: ryegrass, Italian (italian ryegrass, Lolium multiflorum); assay: as above; conditions: 10 days
Outline: as §1

soybean (Glycine max) [10] = assay: as above; conditions: 10 days
Outline: as §1

[11] = system: wheat (Triticum aestivum); assay: as above; conditions: 10 days
Outline: as §1

[12] = system: barnyardgrass (Echinochloa crus-galli); assay: Test A postemergence application, visual injury rating 0-100
Outline: as §1

[13] = system: blackgrass (Alopecurus myosuroides); assay: as above
Outline: as §1

corn (Zea mays) [14] = assay: as above
Outline: as §1

[15] = system: green foxtail (Setaria viridis); assay: as above
Outline: as §1

[16] = system: horseweed (Erigeron canadensis); assay: as above; conditions: Postemergence, 16 g ai/ha, greenhouse 10 days; 0 no effect, 100 complete control
Outline: as §1

kochia (Bassia scoparia) [17] = assay: as above
Outline: as §1

[18] = system: oat, wild (wild oat, Avena fatua); assay: as above
Outline: as §1

[19] = system: palmer (palmer amaranth, palmer pigweed, Amaranthus palmeri); assay: as above
Outline: as §1

[20] = system: ragweed (common ragweed, Ambrosia artemisiifolia); assay: as above
Outline: as §1

[21] = system: ryegrass, Italian (italian ryegrass, Lolium multiflorum); assay: as above
Outline: as §1

soybean (Glycine max) [22] = assay: as above
Outline: as §1

[23] = system: wheat (Triticum aestivum); assay: as above
Outline: as §1

[24] = system: barnyardgrass (Echinochloa crusgalli); assay: Test B flooded paddy test, visual plant response rating 0-100; conditions: 250 g ai/ha, Flood, applied to paddy water, evaluated after 13 days
Outline: (§2)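 2-leaf plants; flood 3 cm over soil; compound dosed into paddy water; depth kept constant; greenhouse 13 d; visual scoring vs controls. Dash = no result.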

[25] = system: ducksalad (Heteranthera limosa); assay: as above; conditions: 250 g ai/ha, Flood, applied to paddy water, evaluated after 13 days
Outline: as §2

rice (Oryza sativa) = assay: as above; conditions: 250 g ai/ha, Flood, applied to paddy water, evaluated after 13 days
Outline: as §2

[26] = system: sedge, umbrella (small-flower umbrella sedge, Cyperus difformis); assay: as above; conditions: 250 g ai/ha, Flood, applied to paddy water, evaluated after 13 days
Outline: as §2

[27] = 62 g ai/ha, 0 = no effect, 100 = complete control
[28] = 62 g ai/ha, postemergence, 10 days, 0 = no effect, 100 = complete control
[29] = Postemergence, 16 g ai/ha, greenhouse 10 days, 0 no effect, 100 complete control

SMILES: CCOC(=O)C1=CCC(NC(=O)C2(C)CN(c3cc(Cl)cc(Cl)c3)C(=O)O2)C1 (stereo not shown) [Compound 113]
- Barnyardgrass plant response rating ([1]; 16 g ai/ha, 0 to 100 scale): 0
- Barnyardgrass plant response rating (0-100) [1, 27]: 0
- Blackgrass plant response rating ([2]; 16 g ai/ha, 0 to 100 scale): 0
- Blackgrass plant response rating (0-100) [2, 27]: 0
- Corn plant response rating (corn (Zea mays) [3]; 16 g ai/ha, 0 to 100 scale): 0
- Corn plant response rating (0-100) (corn (Zea mays) [3]; [27]): 0
- Foxtail, Green plant response rating ([4]; 16 g ai/ha, 0 to 100 scale): 0
- Foxtail, Green plant response rating (0-100) [4, 27]: 0
- Kochia plant response rating (kochia (Bassia scoparia) [5]; 16 g ai/ha, 0 to 100 scale): 0
- Kochia plant response rating (0-100) (kochia (Bassia scoparia) [5]; [27]): 0
- Oat, Wild plant response rating ([6]; 16 g ai/ha, 0 to 100 scale): 0
- Oat, Wild plant response rating (0-100) [6, 27]: 0
- Pigweed, Palmer plant response rating ([7]; 16 g ai/ha, 0 to 100 scale): 0
- Pigweed, Palmer plant response rating (0-100) [7, 27]: 20
- Ragweed plant response rating ([8]; 16 g ai/ha, 0 to 100 scale): 0
- Ragweed plant response rating (0-100) [8, 27]: 0
- Ryegrass, Italian plant response rating ([9]; 16 g ai/ha, 0 to 100 scale): 0
- Ryegrass, Italian plant response rating (0-100) [9, 27]: 0
- Soybean plant response rating (soybean (Glycine max) [10]; 16 g ai/ha, 0 to 100 scale): 0
- Soybean plant response rating (0-100) (soybean (Glycine max) [10]; [27]): 0
- Wheat plant response rating ([11]; 16 g ai/ha, 0 to 100 scale): 0
- Wheat plant response rating (0-100) [11, 27]: 0
- Barnyardgrass plant response rating (0-100) [12, 28]: 10
- Barnyardgrass plant response rating (0 to 100 scale) [12, 29]: 0
- Blackgrass plant response rating (0-100) [13, 28]: 20
- Blackgrass plant response rating (0 to 100 scale) [13, 29]: 0
- Corn plant response rating (0-100) (corn (Zea mays) [14]; [28]): 20
- Corn plant response rating (0 to 100 scale) (corn (Zea mays) [14]; [29]): 0
- Foxtail, Green plant response rating (0-100) [15, 28]: 20
- Foxtail, Green plant response rating (0 to 100 scale) [15, 29]: 0
- Horseweed plant response rating (0 to 100 scale) [16]: 0
- Kochia plant response rating (0-100) (kochia (Bassia scoparia) [17]; [28]): 0
- Kochia plant response rating (0 to 100 scale) (kochia (Bassia scoparia) [17]; [29]): 0
- Oat, Wild plant response rating (0-100) [18, 28]: 0
- Oat, Wild plant response rating (0 to 100 scale) [18, 29]: 0
- Pigweed, Palmer plant response rating (0-100) [19, 28]: 10
- Pigweed, Palmer plant response rating (0 to 100 scale) [19, 29]: 0
- Ragweed plant response rating (0-100) [20, 28]: 30
- Ragweed plant response rating (0 to 100 scale) [20, 29]: 0
- Ryegrass, Italian plant response rating (0-100) [21, 28]: 0
- Ryegrass, Italian plant response rating (0 to 100 scale) [21, 29]: 0
- Soybean plant response rating (0-100) (soybean (Glycine max) [22]; [28]): 0
- Soybean plant response rating (0 to 100 scale) (soybean (Glycine max) [22]; [29]): 0
- Wheat plant response rating (0-100) [23, 28]: 0
- Wheat plant response rating (0 to 100 scale) [23, 29]: 0
- Plant response rating, Barnyardgrass (0 to 100 scale, 0 is no effect and 100 is complete control) [24]: 0
- Plant response rating, Ducksalad (0 to 100 scale, 0 is no effect and 100 is complete control) [25]: 0
- Plant response rating, Rice (0 to 100 scale, 0 is no effect and 100 is complete control) (rice (Oryza sativa)): 0
- Plant response rating, Sedge, Umbrella (0 to 100 scale, 0 is no effect and 100 is complete control) [26]: 0
